{"source": "patent US20070280915A1", "about": "“Combination Therapies Employing A Composition Comprising A Hmg Coa Reductase Inhibitor And A Vitamin B6 Related Compound” (priority 2003, published 2007)", "key": {"[1]": {"experiment": "Effect of pyridoxal 5′-phosphate on fluorescence of the metabolic products of the CYP assays", "method": "Prior to performing the CYP inhibition assays, the effect of pyridoxal 5′-phosphate on the fluorescence of the metabolic products measured in the assays was evaluated. The fluorescence of metabolite (one concentration, in duplicate) was measured in the absence (0 μM) and presence of 0.457 to 1000 μM pyridoxal 5′-phosphate. The concentrations and metabolic products measured were: 1 μM 3-cyano-7-hydroxycoumarin (CHC), 2.5 μM 7-hydroxycoumarin (7-HC), 2.5 μM 7-hydroxy-4-trifluoromethylcoumarin (HFC), 0.1 μM fluorescein, 10 μM 3-[2-(N,N-diethylamino)ethyl]-7-hydroxy-4-methylcoumarin (AHMC) and 10 μM quinolinol. The concentration of metabolite used was based on the expected maximum concentration of metabolite formed in the CYP inhibition assay (i.e. the concentration of metabolite measured following incubation substrate with the CYP subtype in the absence of an inhibitor). CHC is the fluorescent metabolite measured in the CYP1A2 and CYP2C19 assays. 7-HC is the fluorescent metabolite measured in the CYP2A6 assay, HFC is the fluorescent metabolite measured in the CYP2B6, CYP2C9, CYP2E1 and CYP3A4 (BFC as substrate) assays and fluorescein is the metabolite measured in the CYP2C8 assay. AHMC is the metabolite measured in the CYP2D6 assay and quinolinol is measured in the CYP3A4 (BQ as substrate) assay. […]"}, "CYP1A2": {"target": "CYP1A2 (Homo sapiens, UniProt P05177)", "sequence (P05177 whole entry)": "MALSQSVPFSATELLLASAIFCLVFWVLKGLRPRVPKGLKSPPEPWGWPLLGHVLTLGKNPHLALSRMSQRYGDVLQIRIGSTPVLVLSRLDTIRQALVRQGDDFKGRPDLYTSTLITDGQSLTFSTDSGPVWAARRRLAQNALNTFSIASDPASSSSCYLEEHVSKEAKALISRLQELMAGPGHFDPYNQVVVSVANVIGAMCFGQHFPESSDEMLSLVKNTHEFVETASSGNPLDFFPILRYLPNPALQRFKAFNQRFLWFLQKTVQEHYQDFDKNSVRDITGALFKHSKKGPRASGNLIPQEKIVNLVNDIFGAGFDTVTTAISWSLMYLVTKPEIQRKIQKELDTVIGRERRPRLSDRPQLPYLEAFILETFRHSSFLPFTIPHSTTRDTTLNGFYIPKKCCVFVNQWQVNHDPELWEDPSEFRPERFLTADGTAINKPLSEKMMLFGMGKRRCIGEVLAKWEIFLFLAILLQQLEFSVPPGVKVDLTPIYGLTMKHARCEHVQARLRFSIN", "experiment": "CYP1A2 inhibition assay (Supersomes, fluorescent metabolite, substrate CEC)", "details": "0.0169 to […] tested, na = concentration-dependent inhibition not observed", "excerpt": "The CYP inhibition assays used microsomes (Supersomes®, Gentest Corp., Woburn, Mass.) prepared from insect cells, each expressing an individual CYP subtype (CYP1A2, CYP2A6, CYP2B6, CYP2C8, CYP2C9, CYP2C19, CYP2D6, CYP2E1 or CYP3A4) expressed from the corresponding human CYP cDNA using a baculovirus expression vector. The microsomes also incorporated supplemental cDNA-expressed human reductase and/or cytochrome b5, as these enzymes stimulate the activity of the CYPs, allowing for a reduction in the amount of enzyme required per reaction (Gentest Corp.). The assays monitored, via fluorescence detection, the formation of a fluorescent metabolite following incubation of the microsomes with a specific CYP substrate. […]\n(§1) Eight inhibitor and test compound concentrations were tested using 3-fold serial dilutions. […] The amount of metabolic product formed was quantified by fluorescence detection in a fluorescence plate reader utilizing excitation and emission filters that had been optimized for the detection of each metabolite.\nData Analysis—The mean of the duplicate fluorescent signals in the presence and absence (vehicle control) of each compound was calculated and corrected for the background noise. […]"}, "CYP2A6": {"target": "T1, CYP2A6 (Homo sapiens, UniProt P11509)", "T1 sequence (P11509 1-494)": "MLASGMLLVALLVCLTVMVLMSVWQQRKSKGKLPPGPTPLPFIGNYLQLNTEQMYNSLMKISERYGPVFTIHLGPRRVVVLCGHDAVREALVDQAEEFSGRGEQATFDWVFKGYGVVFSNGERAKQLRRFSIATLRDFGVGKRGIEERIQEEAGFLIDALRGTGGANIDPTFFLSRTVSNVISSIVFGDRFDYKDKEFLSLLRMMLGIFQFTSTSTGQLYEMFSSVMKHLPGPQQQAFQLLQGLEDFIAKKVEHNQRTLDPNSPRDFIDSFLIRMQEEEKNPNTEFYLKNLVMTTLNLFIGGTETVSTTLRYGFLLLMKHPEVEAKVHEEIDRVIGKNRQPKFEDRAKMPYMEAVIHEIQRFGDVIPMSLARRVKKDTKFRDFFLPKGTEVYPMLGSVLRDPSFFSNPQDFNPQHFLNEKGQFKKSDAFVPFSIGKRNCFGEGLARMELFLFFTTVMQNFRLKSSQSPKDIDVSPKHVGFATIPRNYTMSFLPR", "experiment": "CYP2A6 inhibition assay (substrate coumarin)", "details": "0.0169 to […] tested, na = concentration-dependent inhibition not observed", "excerpt": "The CYP inhibition assays used microsomes (Supersomes®, Gentest Corp., Woburn, Mass.) prepared from insect cells, each expressing an individual CYP subtype (CYP1A2, CYP2A6, CYP2B6, CYP2C8, CYP2C9, CYP2C19, CYP2D6, CYP2E1 or CYP3A4) expressed from the corresponding human CYP cDNA using a baculovirus expression vector. The microsomes also incorporated supplemental cDNA-expressed human reductase and/or cytochrome b5, as these enzymes stimulate the activity of the CYPs, allowing for a reduction in the amount of enzyme required per reaction (Gentest Corp.). The assays monitored, via fluorescence detection, the formation of a fluorescent metabolite following incubation of the microsomes with a specific CYP substrate. […] Reactions (0.2 mL) were performed in 96-well microtitre plates at 37° C. in the presence of an NADPH regenerating system [NADP+, glucose-6-phosphate (G6P), glucose-6-phosphate dehydrogenase (G6PDH)] and MgCl2. […] All determinations were performed in duplicate. The reagent solutions used for all of the CYP subtype assays, except CYP2C19 and CYP3A4, were prepared by MBDI. For CYP2C19 and CYP3A4, complete reagent kits purchased from Gentest Corp. (CYP2C19/CEC: Cat. No. HTS-4000, Lot No. 1; CYP3A4/BFC: Cat. No. HTS-1000, Lot No. 1) were used to perform the assays.\nas §1, with “dilutions. The microtitre plates containing 0.1 mL/well of the latter mixture were pre-warmed to 37° C. in an incubator.” for “dilutions.”\nData Analysis—The mean of the duplicate fluorescent signals in the presence and absence (vehicle control) of each compound was calculated and corrected for the background noise. Percent inhibition was calculated as the difference in the corrected fluorescent signals in the absence and presence of the compound, divided by the corrected fluorescent signal in the absence of compound, multiplied by 100%."}}, "data": [{"smiles": "Cc1ncc(COP(=O)(O)O)c(C=O)c1O", "note": "[P5P, pyridoxal-5-phosphate]", "values": [{"measurement": "concentration at which fluorescence of metabolites was significantly quenched", "setting": "[1]; metabolites CHC, 7-HC, 7-HFC, AHMC and quinolinol, 0.457 to 1000 μM tested", "value": "> 37", "unit": "µM"}, {"measurement": "effect on the fluorescence of fluorescein", "setting": "[1]; up to 1000 μM, fluorescein is the CYP2C8 assay product", "value": "did not affect"}, {"measurement": "Pyridoxal 5′-phosphate IC50", "setting": "CYP1A2", "value": "did not inhibit"}, {"measurement": "Pyridoxal 5′-phosphate IC50", "setting": "CYP2A6", "value": "did not inhibit"}]}]}
